Data: paper PMC4669759 (Cell Death & Disease, 2015)

Columns and labels:
NOXA = NOXA levels by immunoblotting in HCC-1806 cells; format: cell-based; settings: 8 h, up to 20 μM
Description: (§1) Figure 1 MCL-1 levels are elevated in cancer cells after treatment with MCL-1-binding small molecules. (a) H929 multiple myeloma cells were treated for 4 h with 10 μM A-1210477 before immunopreciptating MCL-1. […] A control H929 lysate was run in lane 1, and an immunoprecipitation with a non-specific antibody (Ig) was run in lane 2. The positions of molecular weight markers (specified in kiloDaltons) are indicated on the left. (b) HCC-1806 breast cancer cells were incubated with increasing concentrations of A-1210477 (0.1, 0.5, 1, 5, 10, 15, or 20 μM) or bortezomib (2, 10, or 50 nM) for 8 h before assessing MCL-1 and NOXA levels by immunoblotting. β-Actin was probed as a protein loading control. The lower graph depicts reverse transcriptase-PCR quantification of MCL1 mRNA from HCC-1806 cells treated for 8 h with similar concentrations of A-1210477. (c) HCC-1806 cells were incubated with increasing concentrations (0.1, 0.5, 1, 5, 10, and 20 μM) of A-954248, A-962653, or A-1248767 for 24 h before assessing MCL-1 and BCL-XL levels by immunoblotting. β-Actin was probed as a protein loading control
(§2) Cells were scraped into cold PBS, pelleted, and then resuspended in 100–200 μl ice-cold insect cell lysis buffer supplemented with protease inhibitors (BD Biosciences Pharmingen, San Diego, CA, USA). Cells were lysed by sonication, and the debris was cleared in a microcentrifuge. […]

MCL-1 [1] = target: T1, MCL-1 (Homo sapiens, UniProt Q07820); assay: MCL-1 protein levels by immunoblotting in HCC-1806 cells; format: cell-based; parameters: endogenous in cells; host or cells: HCC-1806; settings: immunoblot
T1 sequence (Q07820 whole entry): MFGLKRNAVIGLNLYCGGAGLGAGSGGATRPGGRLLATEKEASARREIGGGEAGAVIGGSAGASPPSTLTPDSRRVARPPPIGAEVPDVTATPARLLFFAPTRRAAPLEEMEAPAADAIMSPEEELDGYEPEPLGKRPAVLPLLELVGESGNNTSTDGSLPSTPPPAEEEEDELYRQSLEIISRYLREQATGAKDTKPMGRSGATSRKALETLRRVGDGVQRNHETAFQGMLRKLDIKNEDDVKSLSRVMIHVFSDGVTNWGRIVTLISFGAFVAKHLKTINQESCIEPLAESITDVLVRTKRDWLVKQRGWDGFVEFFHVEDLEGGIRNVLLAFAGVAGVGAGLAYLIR
Description: as §1, §2

[2] = target: T2, BCL-XL–BCL-XS interactions (Homo sapiens, UniProt Q07817); assay: Mammalian two-hybrid assay, BCL-XL–BCL-XS, HeLa cells; format: cell-based; settings: 24 h, luciferase two-hybrid
T2 construct: expressed in transfected cells; host or cells: HeLa cells stably expressing a GAL4-luciferase reporter
T2 sequence (Q07817 whole entry, the tested form may be a part): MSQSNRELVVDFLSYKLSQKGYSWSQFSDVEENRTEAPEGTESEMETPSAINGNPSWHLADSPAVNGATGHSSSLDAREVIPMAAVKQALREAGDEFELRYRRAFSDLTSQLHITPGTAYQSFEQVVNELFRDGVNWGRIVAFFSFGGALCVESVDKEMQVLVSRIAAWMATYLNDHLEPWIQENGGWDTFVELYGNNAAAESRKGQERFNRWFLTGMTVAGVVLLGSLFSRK
Description: (a) H929 cells were treated with increasing concentrations of A-1210477 for 4 h. […] All data represent the mean of triplicate experiments, with error bars indicating the S.D. (b) Quantitative measurement of protein–protein interactions using a luciferase-based mammalian two-hybrid assay. […] All data represent the means of triplicate experiments, with error bars indicating the S.Ds.
HeLa cells stably expressing a GAL4-luciferase reporter were seeded into 10 cm dishes at 5 × 10^5 cells per plate. In all, 24 μg of a plasmid expressing both the ‘bait' and ‘prey' fusion proteins (GAL4DBD-BIM and VP16AD-BCL-2, GAL4DBD-BCL-XL and VP16AD- BCL-XS, or GAL4DBD-MCL-1 and VP16AD-NOXA, respectively) were mixed with 1.5 ml OptiMEM (Invitrogen). Separately, 24 μl Lipofectamine 2000 (Invitrogen) were mixed with 1.5 ml OptiMEM. Both solutions were incubated for 5 min (RT) and then mixed together for 20 min. Three milliliters of the mixture was added to cells in 12 ml culture medium lacking antibiotics, incubated at 37 °C for 24 h, and then transferred to 96-well plates at 20 000 cells per well. Compounds were added in half-log dilutions, starting from 1 μM and ending at 0.0001 μM for 24 h, and luciferase activity was assessed using ONE-Glo reagent (Promega). All data were plotted as the percentage of complex remaining relative to untreated controls.

MCL-1 [3] = target: T1, MCL-1; parameters: endogenous in cells; host or cells: HCC-1806; method as in PMID 25679114; settings: in the presence of 10% human serum; cited from earlier work
MCL1 mRNA = MCL1 mRNA by reverse transcriptase-PCR in HCC-1806 cells; format: cell-based; settings: 8 h
Description: as §1

EJ-1 cells = assay: Navitoclax / A-1210477 combination cell viability, EJ-1 cells; format: cell-based; settings: EJ-1, 48 h
Description: Figure 6 A-1210477 synergizes with navitoclax to kill hematological and solid tumor cell lines. BxPC-3, EJ-1, H23, and OPM-2 cells were treated with increasing concentrations of navitoclax in the presence or absence of increasing concentrations of A-1210477 for 48 h before assessing cell viability. All data points represent the means of triplicate experiments, with error bars indicating the S.E.M. TEXT PRINTED IN THE PICTURE: A-1210477 + navitoclax: Bliss sum (BxPC-3): 716; Bliss sum (EJ-1): 464; Bliss sum (H23): 76; Bliss sum (OPM-2): 946 DOUBTS OF THE COPYIST ABOUT THIS PICTURE: The Bliss sums apply to the combination of A-1210477 and navitoclax. The picture prints the two names separately (legend heading and axis title), not as one joined label.
Adherent cell lines were seeded at 50 000 cells per well in 96-well plates and treated for 48 h with compounds diluted in half-log steps starting at 30 μM and ending at 0.001 μM. Multiple myeloma cell lines were seeded at 15 000–20 000 cells per well and treated similarly. Effects on proliferation and viability were determined using CellTiter-Glo reagent from Promega (Madison, WI, USA) according to the manufacturer's instructions. IC50 values were determined by non-linear regression analysis of the concentration response data.

SMILES: Cc1nn(C)c(COc2ccc(N3CCN(S(=O)(=O)N(C)C)CC3)cc2)c1-c1cccc2c(CCCOc3cccc4ccccc34)c(C(=O)O)n(CCN3CCOCC3)c12 [A-1210477]
- effect on NOXA levels (NOXA): no effect
- effect on MCL-1 protein levels (MCL-1 [1]; 0.1-20 μM): triggered MCL-1 elevation
- lowest concentration at which increases in MCL-1 protein could be observed (MCL-1 [1]; 8 h or 24 h): 0.5 µM
- effect on BCL-XL–BCL-XS interactions [2]: no effect
- shift in MCL-1 affinity (MCL-1 [3]): > 15 fold
- effect on MCL1 mRNA (MCL1 mRNA): No corresponding increase in MCL1 mRNA
- potentiation of navitoclax (EJ-1 cells): substantially shifted the dose–response curve of navitoclax
